Usually Ki stands for a measure of affinity in units of concentration, obtained from inhibition or displacement. As usually defined, the IC50 is the concentration that inhibits the measured activity by half. Read a low IC50 as inhibition by little substance.

Experiment [1] addresses human EP3 receptor (Homo sapiens (Human), UniProt P43115). In words: EP3 Radioligand SPA Binding Assay. Particulars: [3H]-PGE2 displacement, Millipore EP3 Chem1 membranes; geometric mean; Ki from IC50 by Cheng-Prusoff. The protocol:
To measure the ability of test compounds in the present invention to bind to the human EP3 receptor, and therefore have the potential to antagonize PGE2 activity, radioligand displacement assays were performed. Compound affinity was expressed as a Ki value, defined as the concentration of compound required to decrease [^3H] PGE2 binding by 50% for a specific membrane batch at a given concentration of radioligand.
Test compounds were half log serially diluted in 100% DMSO (J. T. Baker #922401). 1 μL of each compound was added to appropriate wells of a 384-well plate (Matrix Cat #4322). Unlabeled PGE2 (Tocris Cat #2296) at a final concentration of 1 μM was used to determine non-specific binding. 1 μL of 100% DMSO (J. T. Baker #922401) was used to determine total binding. Millipore EP3 Chem1 membranes (prepared in-house from cell paste derived from the Millipore ChemiSCREEN™ Human Recombinant EP3 Prostanoid Receptor Calcium-Optimized Stable Cell Line (Millipore Cat # HTS092C, http://www.millipore.com/catalogue/item/hts092c)) were thawed and diluted in binding buffer (50 mM Hepes pH 7.4 (Lonza Cat #17-737), 5 mM MgCl2 (Sigma-M1028), and 0.1% BSA (Sigma A-7409)) to a final concentration of 1 μg/25 μL. 25 μL of diluted membranes were added to prepared compound plates. WGA coated PVT SPA Beads (Perkin Elmer Cat # RPNQ0060) were diluted in binding buffer to a concentration of 4 μg/ul, and 25 μL of the SPA bead mixture was then added to each well for a final assay concentration of 100 μg/well. [^3H]-PGE2 (Perkin Elmer Cat #NET428) was diluted in binding buffer to a concentration of […], and […] was added to all wells for a final assay concentration of 1.125 nM. Plates were incubated for 30 minutes at r.t. (approximately 25° C.) with shaking. Radioactivity associated with each well was measured after a 10 hour incubation using a Wallac Trilux MicroBeta plate-based scintillation counter and a normalized protocol at 1 minute read/well. The Kd for [^3H]-PGE2 was determined by carrying out saturation binding, with data analysis by non-linear regression, fit to a one-site hyperbola (GraphPad Prism®). IC50 determinations were made from competition curves, analyzed with a proprietary curve fitting program (SIGHTS), similar to GraphPad PRISM® and a 4-parameter logistic dose response equation. Ki values were calculated from IC50 values, using the Cheng-Prusoff equation.
Table 5 below provides the Ki values of Examples for the binding affinity against human EP3 in accordance with the above-described assay. Results are reported as geometric mean Ki values, where the example is identified as a free base or designated salt that is made as a solution for the experiment and N is the number of samples tested for that example and is the sum of the forms identified with the corresponding number of the respective form in parentheses.

Experiment [2] has as its target human prostaglandin E3 receptor (EP3) (Homo sapiens (Human), UniProt P43115). In words: Functional activity: cellular cAMP HTRF assay, antagonism of sulprostone. Particulars: CHO-K1 cells expressing human EP3; cAMP with 10 nM sulprostone and forskolin; geometric mean. In kind it is cell-based. The protocol: The functional activity of two Examples was determined by measuring the effect on cellular cAMP levels, under conditions whereby antagonism of the EP3 receptor could be measured. Compound activity was expressed as an IC50 value, defined as the concentration of compound required to decrease agonist (sulprostone) activity by 50%. CHO-K1 cells expressing human prostaglandin E3 receptor (EP3, DiscoveRx #95-0159C2) were maintained in Ham's F-12 Nutrient Mixture (Invitrogen #11765-054) containing L-Glutamine (Gibco #25030-081), Geneticin (Gibco #10131-027), Pen Strep (Gibco #15070-063) and 10% heat-inactivated fetal bovine serum (Sigma #F4135). […] Cellular cAMP levels were determined using a Homogeneous Time-Resolved Fluorescence (HTRF) cAMP detection kit (cAMP HI-Range Assay Kit; CisBio #62AM6PEJ). […] The assay plates were then held at r.t. and after 60 minutes, changes in the HTRF signal were read with an Envision 2104 multi-label plate reader using excitation of 330 nm and emissions of 615 and 665 nm. Raw data were converted to nM cAMP by interpolation from a cAMP standard curve (as described in the cAMP detection kit protocol) and IC50 determinations were made from the response curves analyzed with a curve fitting program, similar to GraphPad PRISM® and using a 4-parameter logistic dose response equation. […]
In general terms: Time-resolved FRET reads energy transfer from a long-lived donor to a nearby acceptor.

Sequence of human EP3 receptor (P43115 whole entry): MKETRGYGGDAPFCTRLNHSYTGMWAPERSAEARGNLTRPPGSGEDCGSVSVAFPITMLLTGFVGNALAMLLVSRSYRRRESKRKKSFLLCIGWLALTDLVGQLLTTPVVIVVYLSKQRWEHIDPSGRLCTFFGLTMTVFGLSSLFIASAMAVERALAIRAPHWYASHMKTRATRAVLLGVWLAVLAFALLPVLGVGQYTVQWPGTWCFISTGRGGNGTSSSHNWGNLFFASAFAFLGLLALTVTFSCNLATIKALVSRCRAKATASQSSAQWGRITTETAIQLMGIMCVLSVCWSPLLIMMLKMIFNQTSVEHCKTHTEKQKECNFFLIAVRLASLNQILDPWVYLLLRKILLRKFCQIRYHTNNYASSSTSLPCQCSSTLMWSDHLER
Sequence of human prostaglandin E3 receptor (EP3) (P43115 whole entry): as above

In experiment [1], `Cc1cccc2ncc(-c3ccc([C@@]4(C)CCCNC4=O)c(=O)[nH]3)cc12` [Example 1, (R)-3-(3-Methyl-2-oxopiperidin-3-yl)-6-(5-methylquinolin-3-yl)pyridin-2(1H)-one] yielded a Ki of 3.3 nM. In experiment [2], this compound showed an IC50 of 30.8 nM.
Consider `Cc1cc(-c2ccc([C@@]3(C)CCCNC3=O)c(=O)[nH]2)cc2ncccc12` [Example 2, (R)-3-(3-Methyl-2-oxopiperidin-3-yl)-6-(5-methylquinolin-7-yl)pyridin-2(1H)-one], for which the Ki in experiment [1] was 7.2 nM.
In the case of `CCc1cc(-c2ccc([C@@]3(C)CCCNC3=O)c(=O)[nH]2)cc2ncccc12` [Example 3, (R)-6-(5-Ethylquinolin-7-yl)-3-(3-methyl-2-oxopiperidin-3-yl)pyridin-2(1H)-one], the Ki in experiment [1] amounted to 4.6 nM.
Take `C[C@]1(c2ccc(-c3cc(Cl)c4cccnc4c3)[nH]c2=O)CCCNC1=O` [Example 4, (R)-6-(5-Chloroquinolin-7-yl)-3-(3-methyl-2-oxopiperidin-3-yl)pyridin-2(1H)-one]: affinity in experiment [1] was put at a Ki of 8.9 nM.
Compound `C[C@]1(c2ccc(-c3cc(C4CC4)c4cccnc4c3)[nH]c2=O)CCCNC1=O` [Example 5, (R)-6-(5-Cyclopropylquinolin-7-yl)-3-(3-methyl-2-oxopiperidin-3-yl)pyridin-2(1H)-one] returned a Ki in experiment [1] of 7.3 nM. The Ki values of the last two compounds are within 1.5-fold of each other.
The same measure, in the same setting: the value for `C[C@]1(c2ccc(-c3cc(F)c4cccnc4c3)[nH]c2=O)CCCNC1=O` [Example 6, (R)-6-(5-Fluoroquinolin-7-yl)-3-(3-methyl-2-oxopiperidin-3-yl)pyridin-2(1H)-one] was 48.6 nM.
For `Cc1cccc2ncc(-c3ccc([C@@]4(C)CCNC4=O)c(=O)[nH]3)cc12` [Example 7, (R)-3-(3-Methyl-2-oxopyrrolidin-3-yl)-6-(5-methylquinolin-3-yl)pyridin-2(1H)-one], the Ki in experiment [1] came to 18.6 nM. In experiment [2], this compound returned an IC50 of 34.1 nM.

These data come from patent publication US9738626B2, “Antagonists of prostaglandin EP3 receptor” (Pfizer Inc., priority 2014, dated 2017).
